Measured values as given in US20240368214A1, “POSITIVE NMDA-MODULATING COMPOUNDS AND METHODS OF USE THEREOF” (SAGE THERAPEUTICS, INC., priority 2021, published 2024).
Read-outs that look alike come from different tables or passages of the source.

Target: T1, recombinant human GluN1/GluN2A receptor (Homo sapiens, UniProt Q05586+Q12879)
T1 construct: expressed in transfected cells; host or cells: HEK293, tetracycline-inducible expression
Assay: Whole-cell patch clamp of mammalian cells (Syncropatch 384i), NMDA modulation
Assay type: cell-based
Details: HEK293 cells, human GluN1/GluN2A, glutamate 1 μM / glycine 100 μM, -80 mV, peak amplitude increase; for EC50: read-out: EC50
From the text: Whole-Cell Patch Clamp of Mammalian Cells (Syncropatch 384i (Nanion Technologies))
Whole-cell patch clamp electrophysiology was used to investigate the effects of compounds on GluN1/GluN2A N-methyl-D-aspartate (NMDA) glutamate receptors expressed in mammalian cells.
Human embryonic kidney (HEK293) cells expressing the recombinant human GluN1/GluN2A receptor under the control of a tetracycline-inducible expression system were used. Cells were maintained in Dulbecco's Modified Eagle's Medium (DMEM) with 1% glutamine, 10% Tetracycline System Approved fetal bovine serum (FBS), and NMDA inhibitors. Cells were cultured in a humidified 5% CO2 incubator at 37° C. Cells were induced with 50 ng/ml tetracycline 18-24 hours prior to testing. A cocktail of channel blockers was added to the media to prevent cell death.
Cells were 60-80% confluent at the time of harvest. Cells were detached from the flask TrypLE Enzyme Express (Thermo Fisher) at 37° C., and then cold extracellular solution was added to the flask, followed by incubation at 4° C. and then trituration of the cells. The cell solution was then placed on a shaker on the Syncropatch platform at 10° C. with a shake speed of a minimum 200 rpm for at least 30 minutes prior to testing.
Extracellular (EC) solution (in mM) —140 NaCl, 4 KCl, 5 CaCl2, 10 HEPES, 5 Glucose, pH 7.4 with NaOH. All external solutions contained 0.2% DMSO and 0.01% Kolliphor® EL (C5135, Sigma) throughout the experiment.
Intracellular (IC) solution (in mM) —120 CsF, 10 mM EGTA, 10 NaCl, 10 HEPES, 4 NaATP, 2 MgCl2, pH 7.2 with CsOH.
First, the DMSO Master Plate was prepared, in which the DMSO stock of each test compound was serially diluted in 100% DMSO to 1000× the final assay concentration. Immediately prior to assay testing, the compounds were diluted 1:100 by transferring solutions from the DMSO Mast Plate to the Intermediate Plate pre-filled with EC solution using a Biomek FX automated liquid handling system. Compounds were then diluted further with extracellular solution into two pre-incubation plates—1) compound from the Intermediate Plate was mixed with EC solution at a 1:5 dilution to create a 2× Compound Pre-Incubation Plate which was diluted a further 1:2 when added to the Syncropatch for the initial compound pre-incubation. And 2) compound from the Intermediate plate was mixed with EC solution at a 1:10 Dilution to create the 1× Compound Pre-Incubation Plate, which was used for subsequent compound pre-incubations. Finally, a Compound+Agonist Plate was prepared by mixing compound from the 2× Compound Pre-Incubation Plate with 2× concentration of co-agonists in a 1:1 ratio.
Each experiment sequentially included cell catching, sealing, whole-cell formation, liquid application, recording and data acquisition. Whole-cell patch clamp recordings were performed using multi-hole high resistance chips on the SyncroPatch 384i (Nanion Technologies). A steady-state voltage pulse at -80 mV was applied throughout the assay and a 10 second recording window was triggered around 1 second prior to application of co-agonists. Currents were leak corrected and sampled at 5 kHz.
A fast application was used, in which 5 μl co-agonist was rapidly applied at a speed of 30 μl/s and then rapidly removed from the well. To test for modulator activity, the co-agonists glutamate (1 μM) and glycine (100 μM) were applied three times to show activation reproducibility, followed by 120 seconds pre-incubation of test compound alone. The test compound was then re-applied in the presence of co-agonists two times. This was followed by application of the agonist alone, although test compound may not be fully washed from the well prior to this step. Finally, a saturating concentration of co-agonists (glutamate 100 μM/glycine 100 μM) was applied.
The voltage protocol generation data collection and analysis were performed on PatchControll384 and DataControll384. […]

T1 sequence (Q12879 23-1464, other chains not shown): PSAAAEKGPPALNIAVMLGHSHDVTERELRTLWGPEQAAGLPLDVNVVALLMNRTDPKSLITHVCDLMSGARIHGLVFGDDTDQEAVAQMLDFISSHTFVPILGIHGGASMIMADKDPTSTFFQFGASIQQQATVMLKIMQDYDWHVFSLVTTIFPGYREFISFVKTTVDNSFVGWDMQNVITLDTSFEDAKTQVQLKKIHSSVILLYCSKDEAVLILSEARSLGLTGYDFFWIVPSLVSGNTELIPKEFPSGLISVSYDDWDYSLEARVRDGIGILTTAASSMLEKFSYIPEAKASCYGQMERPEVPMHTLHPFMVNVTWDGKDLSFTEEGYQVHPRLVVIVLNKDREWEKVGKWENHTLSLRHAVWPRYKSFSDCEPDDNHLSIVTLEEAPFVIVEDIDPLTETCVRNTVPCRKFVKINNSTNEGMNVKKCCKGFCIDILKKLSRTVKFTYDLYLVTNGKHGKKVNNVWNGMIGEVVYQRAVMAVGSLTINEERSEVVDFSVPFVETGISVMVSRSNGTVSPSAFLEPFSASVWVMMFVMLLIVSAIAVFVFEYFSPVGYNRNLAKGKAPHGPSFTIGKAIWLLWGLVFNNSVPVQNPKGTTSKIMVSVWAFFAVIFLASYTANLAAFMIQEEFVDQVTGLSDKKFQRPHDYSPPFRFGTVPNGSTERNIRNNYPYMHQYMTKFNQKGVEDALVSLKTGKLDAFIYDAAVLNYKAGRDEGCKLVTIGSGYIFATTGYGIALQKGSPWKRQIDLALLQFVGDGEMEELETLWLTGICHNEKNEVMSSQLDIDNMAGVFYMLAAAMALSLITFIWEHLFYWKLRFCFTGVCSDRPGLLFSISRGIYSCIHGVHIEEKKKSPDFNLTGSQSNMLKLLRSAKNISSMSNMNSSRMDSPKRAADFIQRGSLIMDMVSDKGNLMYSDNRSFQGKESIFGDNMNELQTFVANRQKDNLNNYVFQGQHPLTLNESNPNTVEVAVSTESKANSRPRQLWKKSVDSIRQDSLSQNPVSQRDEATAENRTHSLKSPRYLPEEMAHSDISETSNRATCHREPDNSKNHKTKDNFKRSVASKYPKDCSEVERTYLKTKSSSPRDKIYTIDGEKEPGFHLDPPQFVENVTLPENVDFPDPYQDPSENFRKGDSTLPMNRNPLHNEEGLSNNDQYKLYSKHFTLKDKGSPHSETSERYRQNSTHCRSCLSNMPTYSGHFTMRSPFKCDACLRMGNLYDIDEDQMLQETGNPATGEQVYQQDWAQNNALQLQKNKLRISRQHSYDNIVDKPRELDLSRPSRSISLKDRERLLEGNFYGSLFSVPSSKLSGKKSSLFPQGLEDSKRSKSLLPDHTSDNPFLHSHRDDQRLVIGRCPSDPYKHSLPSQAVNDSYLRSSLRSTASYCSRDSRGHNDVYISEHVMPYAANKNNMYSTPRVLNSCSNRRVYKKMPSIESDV

Compound | Emax (Table A-2) [%] | EC50 (Table A-2) [nM] | Emax (Table B-2) [%] | EC50 (Table B-2) [nM]
CC[C@]1(O)CC[C@@]2(C)C(=CC[C@H]3[C@@H]4CC[C@H]([C@@H](CC[C@@](C)(O)C(F)(F)F)OC)[C@@]4(C)CC[C@@H]32)C1 [Compound A-13, (3S,8S,9S,10R,13S,14S,17S)-3-ethyl-10,13-dimethyl-17-((1R,4R)-5,5,5-trifluoro-4-hydroxy-1-methoxy-4-methylpentyl)-2,3,4,7,8,9,10,11,12,13,14,15,16,17-tetradecahydro-1H-cyclopenta[a]phenanthren-3-ol] | > 200 | 500 to 1000 | – | –
CC[C@]1(O)CC[C@@]2(C)C(=CC[C@H]3[C@@H]4CC[C@H]([C@@H](CC[C@](C)(O)C(F)(F)F)OC)[C@@]4(C)CC[C@@H]32)C1 [Compound A-14, (3S,8S,9S,10R,13S,14S,17S)-3-ethyl-10,13-dimethyl-17-((1R,4S)-5,5,5-trifluoro-4-hydroxy-1-methoxy-4-methylpentyl)-2,3,4,7,8,9,10,11,12,13,14,15,16,17-tetradecahydro-1H-cyclopenta[a]phenanthren-3-ol] | > 200 | 1 to 100 | – | –
CC[C@]1(O)CC[C@@]2(C)C(=CC[C@H]3[C@@H]4CC[C@H]([C@@H](CC[C@@H](O)C(C)C)OC)[C@@]4(C)CC[C@@H]32)C1 [Compound A-15, (3S,8S,9S,10R,13S,14S,17S)-3-ethyl-17-((1R,4R)-4-hydroxy-1-methoxy-5-methylhexyl)-10,13-dimethyl-2,3,4,7,8,9,10,11,12,13,14,15,16,17-tetradecahydro-1H-cyclopenta[a]phenanthren-3-ol] | > 200 | 1 to 100 | – | –
CC[C@]1(O)CC[C@@]2(C)C(=CC[C@H]3[C@@H]4CC[C@H]([C@@H](CC[C@H](O)C(C)C)OC)[C@@]4(C)CC[C@@H]32)C1 [Compound A-16, (3S,8S,9S,10R,13S,14S,17S)-3-ethyl-17-((1R,4S)-4-hydroxy-1-methoxy-5-methylhexyl)-10,13-dimethyl-2,3,4,7,8,9,10,11,12,13,14,15,16,17-tetradecahydro-1H-cyclopenta[a]phenanthren-3-ol] | > 200 | 1 to 100 | – | –
CC[C@]1(O)CC[C@@]2(C)[C@@H](CC[C@@H]3[C@@H]2CC[C@]2(C)[C@@H]([C@H](CC[C@H](O)C(C)C)C(F)(F)F)CC[C@@H]32)C1 [Compound A-17, (3S,5S,8R,9S,10S,13S,14S,17R)-3-ethyl-10,13-dimethyl-17-((2S,5S)-1,1,1-trifluoro-5-hydroxy-6-methylheptan-2-yl)hexadecahydro-1H-cyclopenta[a]phenanthren-3-ol] | – | > 1000 | – | –
CC[C@]1(O)CC[C@@]2(C)[C@@H](CC[C@@H]3[C@@H]2CC[C@]2(C)[C@@H]([C@H](CCCC(C)(C)O)C(F)(F)F)CC[C@@H]32)C1 [Compound A-18, (3S,5S,8R,9S,10S,13S,14S,17R)-3-ethyl-10,13-dimethyl-17-((S)-1,1,1-trifluoro-6-hydroxy-6-methylheptan-2-yl)hexadecahydro-1H-cyclopenta[a]phenanthren-3-ol] | – | > 1000 | – | –
CC[C@@H](CCCC(C)(C)O)[C@H]1CC[C@H]2[C@@H]3CC[C@H]4C[C@](O)(CC)CC[C@]4(C)[C@H]3CC[C@]12C [Compound A-20, (3S,5S,8R,9S,10S,13R,14S,17R)-3-ethyl-17-((S)-7-hydroxy-7-methyloctan-3-yl)-10,13-dimethylhexadecahydro-1H-cyclopenta[a]phenanthren-3-ol] | – | > 1000 | – | –
CC[C@]1(O)CC[C@@]2(C)[C@@H](CC[C@@H]3[C@@H]2CC[C@]2(C)[C@@H]([C@@H](CC[C@@](C)(O)C(F)(F)F)OC)CC[C@@H]32)C1 [Compound A-23, (3S,5S,8R,9S,10S,13S,14S,17S)-3-ethyl-10,13-dimethyl-17-((1R,4R)-5,5,5-trifluoro-4-hydroxy-1-methoxy-4-methylpentyl) hexadecahydro-1H-cyclopenta[a]phenanthren-3-ol] | – | 500 to 1000 | – | –
CC[C@]1(O)CC[C@@]2(C)[C@@H](CC[C@@H]3[C@@H]2CC[C@]2(C)[C@@H]([C@@H](CC[C@](C)(O)C(F)(F)F)OC)CC[C@@H]32)C1 [Compound A-24, (3S,5S,8R,9S,10S,13S,14S,17S)-3-ethyl-10,13-dimethyl-17-((1R,4S)-5,5,5-trifluoro-4-hydroxy-1-methoxy-4-methylpentyl) hexadecahydro-1H-cyclopenta[a]phenanthren-3-ol] | – | 100 to 500 | – | –
CC[C@]1(O)CC[C@@]2(C)[C@@H](CC[C@H]3[C@@H]4[C@@H]5C[C@@H]5[C@H]([C@H](C)CCCC(C)(C)O)[C@@]4(C)CC[C@@H]32)C1 [Compound B-1, (2S,4aS,4bS,6aR,7S,7aS,8aR,8bS,8cR,10aS)-2-ethyl-7-((R)-6-hydroxy-6-methylheptan-2-yl)-4a,6a-dimethyloctadecahydrocyclopropa[4,5]cyclopenta[1,2-a]phenanthren-2-ol] | – | – | > 200 | 1 to 100
CC[C@]1(O)CC[C@@]2(C)[C@@H](CC[C@H]3[C@@H]4[C@@H]5C[C@@H]5[C@H]([C@H](C)CC[C@@](C)(O)C(F)(F)F)[C@@]4(C)CC[C@@H]32)C1 [Compound B-2, (2S,4aS,4bS,6aR,7S,7aS,8aR,8bS,8cR,10aS)-2-ethyl-4a,6a-dimethyl-7-((2R,5R)-6,6,6-trifluoro-5-hydroxy-5-methylhexan-2-yl)octadecahydrocyclopropa[4,5]cyclopenta[1,2-a]phenanthren-2-ol] | – | – | > 200 | 100 to 500
CC[C@]1(O)CC[C@@]2(C)[C@@H](CC[C@H]3[C@@H]4[C@@H]5C[C@@H]5[C@H]([C@H](C)CC[C@](C)(O)C(F)(F)F)[C@@]4(C)CC[C@@H]32)C1 [Compound B-3, (2S,4aS,4bS,6aR,7S,7aS,8aR,8bS,8cR,10aS)-2-ethyl-4a,6a-dimethyl-7-((2R,5S)-6,6,6-trifluoro-5-hydroxy-5-methylhexan-2-yl)octadecahydrocyclopropa[4,5]cyclopenta[1,2-a]phenanthren-2-ol] | – | – | > 200 | 1 to 100
CC[C@]1(O)CC[C@@]2(C)[C@@H](CC[C@H]3[C@@H]4[C@H]5C[C@H]5[C@H]([C@H](C)CCCC(C)(C)O)[C@@]4(C)CC[C@@H]32)C1 [Compound B-4, (2S,4aS,4bS,6aR,7S,7aR,8aS,8bS,8cR,10aS)-2-ethyl-7-((R)-6-hydroxy-6-methylheptan-2-yl)-4a,6a-dimethyloctadecahydrocyclopropa[4,5]cyclopenta[1,2-a]phenanthren-2-ol] | – | – | > 200 | 1 to 100
CC[C@]1(O)CC[C@@]2(C)[C@@H](CC[C@H]3[C@@H]4[C@H]5C[C@H]5[C@H]([C@H](C)CC[C@](C)(O)C(F)(F)F)[C@@]4(C)CC[C@@H]32)C1 [Compound B-5, (2S,4aS,4bS,6aR,7S,7aR,8aS,8bS,8cR,10aS)-2-ethyl-4a,6a-dimethyl-7-((2R,5S)-6,6,6-trifluoro-5-hydroxy-5-methylhexan-2-yl)octadecahydrocyclopropa[4,5]cyclopenta[1,2-a]phenanthren-2-ol] | – | – | > 200 | 100 to 500
CC[C@]1(O)CC[C@@]2(C)[C@@H](CC[C@H]3[C@@H]4[C@H]5C[C@H]5[C@H]([C@H](C)CCC(C)(C)O)[C@@]4(C)CC[C@@H]32)C1 [Compound B-6] | – | – | > 200 | 100 to 500
